Source: ChEMBL document CHEMBL3044830, “Synthesis, characterization, antibacterial, antifungal, and immunomodulating activities of gatifloxacin derivatives” (Med Chem Res, 2010)

How the values were obtained:
Bacillus subtilis [1] = assay: Antibacterial activity against Bacillus subtilis assessed as concentration required to obtain a zone of inhibition of 10 mm after 18 to 24 hr by disk diffusion method; assay type: functional
Fusarium solani = assay: Antifungal activity against Fusarium solani assessed as concentration required to obtain a zone of inhibition of 20 mm after 7 days by disk diffusion method; assay type: functional
Proteus mirabilis = assay: Antibacterial activity against Proteus mirabilis assessed as concentration required to obtain a zone of inhibition of 5 mm after 18 to 24 hr by disc diffusion method; assay type: functional
Bacillus subtilis [2] = assay: Antibacterial activity against Bacillus subtilis assessed as zone of inhibition at 5 to 40 ug/ml after 18 to 24 hr by disk diffusion method relative to gatifloxacin; assay type: functional
Shigella sp. [3] = assay: Antibacterial activity against Shigella typhi assessed as concentration required to obtain a zone of inhibition of 5 mm after 18 to 24 hr by disc diffusion method; assay type: functional
T-cell [4] = assay: Anti-inflammatory activity in Homo sapiens (human) T lymphocytes assessed as inhibition of PHA-induced [3H] thymidine uptake incubated for 72 hr prior to [3H]thymidine addition measured after 18 hr by liquid scintillation method; assay type: functional, cell-based
Klebsiella pneumoniae = assay: Antibacterial activity against Klebsiella pneumoniae assessed as concentration required to obtain a zone of inhibition of 20 mm after 18 to 24 hr by disk diffusion method; assay type: functional
Blood [5] = assay: Antioxidant activity in Homo sapiens (human) whole blood assessed as inhibition of ROS production after 30 min by luminol-enhanced chemiluminescence assay; assay type: functional, tissue-based; details: 0.5 h
[6] = Antibacterial activity against Hofmanni bacterium assessed as zone of inhibition after 18 to 24 hr by disc diffusion method relative to gatifloxacin
Escherichia coli [7] = assay: Antibacterial activity against Escherichia coli assessed as concentration required to obtain a zone of inhibition of 5 mm after 18 to 24 hr by disk diffusion method; assay type: functional
Candida albicans = assay: Antifungal activity against Candida albicans assessed as concentration required to obtain a zone of inhibition of 40 mm after 7 days by disk diffusion method; assay type: functional
Blood [8] = assay: Antioxidant activity in Homo sapiens (human) whole blood assessed as inhibition of ROS production at 12.5 ug/ml after 30 min by luminol-enhanced chemiluminescence assay; assay type: functional; details: 0.5 h
T-cell [9] = assay: Anti-inflammatory activity in Homo sapiens (human) T lymphocytes assessed as inhibition of PHA-induced [3H] thymidine uptake at 12.5 ug/ml incubated for 72 hr prior to [3H]thymidine addition measured after 18 hr by liquid scintillation method; assay type: functional
Bacillus subtilis [10] = assay: Antibacterial activity against Bacillus subtilis assessed as concentration required to obtain a zone of inhibition of 5 mm after 18 to 24 hr by disk diffusion method; assay type: functional
Trichophyton rubrum = assay: Antifungal activity against Trichophyton rubrum assessed as zone of inhibition at 5 to 40 ug/ml after 7 days by disk diffusion method relative to gatifloxacin; assay type: functional
Shigella flexneri = assay: Antibacterial activity against Shigella flexneri assessed as zone of inhibition at 5 to 40 ug/ml after 18 to 24 hr by disk diffusion method relative to gatifloxacin; assay type: functional
Escherichia coli [11] = assay: Antibacterial activity against Escherichia coli assessed as concentration required to obtain a zone of inhibition of 10 mm after 18 to 24 hr by disk diffusion method; assay type: functional
Shigella sp. [12] = assay: Antibacterial activity against Shigella typhi assessed as concentration required to obtain a zone of inhibition of 10 mm after 18 to 24 hr by disc diffusion method; assay type: functional

| SMILES | Activity (Bacillus subtilis [1]) [µg/mL] | Activity (Fusarium solani) [µg/mL] | Activity (Proteus mirabilis) [µg/mL] | inhibition zone (IZ) (Bacillus subtilis [2]) [%] | Activity (Shigella sp. [3]) [µg/mL] | IC50 (T-cell [4]) [µg/mL] | Activity (Klebsiella pneumoniae) [µg/mL] | IC50 (Blood [5]) [µg/mL] | inhibition zone (IZ) [6] [%] | Activity (Escherichia coli [7]) [µg/mL] | Activity (Candida albicans) [µg/mL] | inhibition at 12.5 µg/mL (Blood [8]) [%] | inhibition at 12.5 µg/mL (T-cell [9]) [%] | Activity (Bacillus subtilis [10]) [µg/mL] | inhibition zone (IZ) (Trichophyton rubrum) [%] | inhibition zone (IZ) (Shigella flexneri) [%] | Activity (Escherichia coli [11]) [µg/mL] | Activity (Shigella sp. [12]) [µg/mL] |
| --- | --- | --- | --- | --- | --- | --- | --- | --- | --- | --- | --- | --- | --- | --- | --- | --- | --- | --- |
| COc1c(N2CCN(C(=O)c3ccccc3)C(C)C2)c(F)cc2c(=O)c(C(=O)O)cn(C3CC3)c12.O (configuration not stated) | 15 | 17 | 9 | 104 | 8 | > 50 | 21 | > 100 | 86 | 8 | 14 | -5.1 | -41.5 | 12 | 185 | 88.1 | 16 | 9 |
| CCCCCCCC(=O)N1CCN(c2c(F)cc3c(=O)c(C(=O)O)cn(C4CC4)c3c2OC)CC1C.O (configuration not stated) | 11 | 14 | 11 | 80.2 | 8 | > 50 | 18 | < 12.5 | 88 | 8 | 21 | 74.1 | -41.5 | 10 | 127 | 105 | 10 |  |
| COc1c(N2CCN(C(C)=O)C(C)C2)c(F)cc2c(=O)c(C(=O)O)cn(C3CC3)c12.O (configuration not stated) | 15 | 13 | 9 | 100 | 9 | > 50 | 25 | > 100 | 99 | 10 | 19 | -14.3 | -35.7 | 11 | 239 | 151 | 17 |  |
